Reference: US8680159B2, “Bradykinin 1 receptor modulating compounds” (Gruenenthal GmbH, priority 2010, dated 2014)
Like-named read-outs stand apart in the source and are kept apart here.

How the values were obtained:
[1] = biological target: T1, human B1R receptor (CHO K1 cells stably transfected with the human B1R gene) (Homo sapiens, UniProt P46663); assay: Functional study on the bradykinin receptor 1 (B1R), Ca2+ fluorescence (Fluo-4) FLIPR/Novostar assay, hB1R cells; type: cell-based
T1 construct: expressed in transfected cells; host or cells: CHO K1 cells (Chinese hamster ovary), stably transfected
T1 sequence (P46663 1-353): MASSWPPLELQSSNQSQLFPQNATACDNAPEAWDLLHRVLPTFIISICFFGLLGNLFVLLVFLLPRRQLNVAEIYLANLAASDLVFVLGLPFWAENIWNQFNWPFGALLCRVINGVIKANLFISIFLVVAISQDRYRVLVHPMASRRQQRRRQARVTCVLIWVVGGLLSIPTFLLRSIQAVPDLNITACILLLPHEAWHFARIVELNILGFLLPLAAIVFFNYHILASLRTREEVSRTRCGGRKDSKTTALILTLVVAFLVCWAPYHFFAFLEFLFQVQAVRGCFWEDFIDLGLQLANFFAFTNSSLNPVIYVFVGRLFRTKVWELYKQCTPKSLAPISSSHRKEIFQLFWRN
Summary of the method: (§1)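 Ca2+ influx (Fluo-4, peak fluorescence, λex 488/λem 540 nm) was measured in CHO K1 lines expressing rat or human B1R. After a 10 μM test-compound pre-addition scoring % activation, cells received EC80 agonist: Des-Arg9-bradykinin for rat, Lys-Des-Arg9-bradykinin for human. Antagonism was expressed as % of maximum inhibition, with IC50 from varied concentrations.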

[2] = biological target: T2, B1R receptor of the rat (CHO K1 cells stably transfected with the B1R gene of the rat) (Rattus norvegicus, UniProt P97583); assay: Functional study on the bradykinin receptor 1 (B1R), Ca2+ fluorescence (Fluo-4) FLIPR/Novostar assay, rB1R cells; type: cell-based; details: for inhibition at 10 µM: CHO-K1, 10 μM, read-out: % Inhibition (r-B1R) at 10 μM
T2 construct: expressed in transfected cells; host or cells: CHO K1 cells (Chinese hamster ovary), stably transfected
T2 sequence (P97583 1-337): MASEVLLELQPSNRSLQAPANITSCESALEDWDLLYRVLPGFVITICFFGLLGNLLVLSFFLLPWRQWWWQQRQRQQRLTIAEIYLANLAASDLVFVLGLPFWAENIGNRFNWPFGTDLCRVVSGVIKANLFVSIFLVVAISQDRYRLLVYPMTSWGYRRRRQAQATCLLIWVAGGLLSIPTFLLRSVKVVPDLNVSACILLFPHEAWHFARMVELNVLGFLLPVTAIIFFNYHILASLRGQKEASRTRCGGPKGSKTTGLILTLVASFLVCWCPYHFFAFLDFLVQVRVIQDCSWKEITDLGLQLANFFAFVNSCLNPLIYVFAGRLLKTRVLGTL
Summary of the method: as §1

[3] = CHO-K1, read-out: % Inhibition (h-B1R) at 10 μM
[4] = CHO-K1, read-out: % inhibition (human B1R) at 10 μM

Compound | inhibition at 10 µM [1, 3] [%] | inhibition at 10 µM [2] [%] | % Inhibition (r-B1R) at 10 μM [2] [%] | inhibition at 10 µM [1, 4] [%]
CN(C(=O)c1ccc2c(c1)C(NC(=O)c1cccc(Cl)c1Cl)CCC2)C1CCN(c2ccncc2)CC1 (centres unmarked) [CC_H-03, 8-[(2,3-Dichloro-benzoyl)amino]-N-methyl-N-(1-pyridin-4-yl-piperidin-4-yl)-5,6,7,8-tetrahydro-naphthalene-2-carboxylic acid amide] | 99 | 103 | – | –
CN(C(=O)c1ccc2c(c1)C(NC(=O)c1cc(F)ccc1Cl)CCC2)C1CCN(c2ccncc2)CC1 (centres unmarked) [CC_H-04, 8-[(2-Chloro-5-fluoro-benzoyl)amino]-N-methyl-N-(1-pyridin-4-yl-piperidin-4-yl)-5,6,7,8-tetrahydro-naphthalene-2-carboxylic acid amide] | 99 | – | 104 | –
CN(C(=O)c1ccc2c(c1)C(NC(=O)C1CCCCC1)CCC2)C1CCN(c2ccncc2)CC1 (centres unmarked) [CC_H-05, 8-(Cyclohexanecarbonylamino)-N-methyl-N-(1-pyridin-4-yl-piperidin-4-yl)-5,6,7,8-tetrahydro-naphthalene-2-carboxylic acid amide] | 98 | 103 | – | –
CN(C(=O)c1ccc2c(c1)C(NC(=O)CCC1CCCC1)CCC2)C1CCN(c2ccncc2)CC1 (centres unmarked) [CC_H-06, 8-(3-Cyclopentyl-propanoylamino)-N-methyl-N-(1-pyridin-4-yl-piperidin-4-yl)-5,6,7,8-tetrahydro-naphthalene-2-carboxylic acid amide] | 100 | 104 | – | –
CN(C(=O)c1ccc2c(c1)C(NC(=O)c1sccc1Cl)CCC2)C1CCN(c2ccncc2)CC1 (centres unmarked) [CC_H-07, 3-Chloro-N-[7-[methyl-(1-pyridin-4-yl-piperidin-4-yl)-carbamoyl]-1,2,3,4-tetrahydro-naphthalen-1-yl]-thiophene-2-carboxylic acid amide] | 99 | 103 | – | –
CN(C(=O)c1ccc2c(c1)C(NC(=O)c1cncnc1)CCC2)C1CCN(c2ccncc2)CC1 (centres unmarked) [CC_H-08, N-[7-[Methyl-(1-pyridin-4-yl-piperidin-4-yl)-carbamoyl]-1,2,3,4-tetrahydro-naphthalen-1-yl]-pyrimidine-5-carboxylic acid amide] | 99 | 104 | – | –
Cc1cccc(C)c1C(=O)NC1CCCc2ccc(C(=O)N(C)C3CCN(c4ccncc4)CC3)cc21 (centres unmarked) [CC_H-09, 8-[(2,6-Dimethyl-benzoyl)amino]-N-methyl-N-(1-pyridin-4-yl-piperidin-4-yl)-5,6,7,8-tetrahydro-naphthalene-2-carboxylic acid amide] | 99 | 103 | – | –
CN(C(=O)c1ccc2c(c1)C(NC(=O)c1c(Cl)cccc1C(F)(F)F)CCC2)C1CCN(c2ccncc2)CC1 (centres unmarked) [CC_H-11, 8-[[2-Chloro-6-(trifluoromethyl)-benzoyl]amino]-N-methyl-N-(1-pyridin-4-yl-piperidin-4-yl)-5,6,7,8-tetrahydro-naphthalene-2-carboxylic acid amide] | 99 | 103 | – | –
CN(C(=O)c1ccc2c(c1)C(NC(=O)c1cnccc1C(F)(F)F)CC2(C)C)C1CCN(c2ccncc2)CC1 (centres unmarked) [CC_H-12, N-[3,3-Dimethyl-6-[methyl-(1-pyridin-4-yl-piperidin-4-yl)-carbamoyl]-1,2-dihydro-inden-1-yl]-4-(trifluoromethyl)-pyridine-3-carboxylic acid amide] | 100 | 104 | – | –
CN(C(=O)c1ccc2c(c1)CCC2NC(=O)c1sccc1Cl)C1CCN(c2ccncc2)CC1 (centres unmarked) [CC_H-13, 3-Chloro-N-[5-[methyl-(1-pyridin-4-yl-piperidin-4-yl)-carbamoyl]-2,3-dihydro-1H-inden-1-yl]-thiophene-2-carboxylic acid amide] | 100 | 78 | – | –
CN(C(=O)c1ccc2c(c1)C(NC(=O)C1CCCCC1)CC2(C)C)C1CCN(c2ccncc2)CC1 (centres unmarked) [CC_H-14, 3-(Cyclohexanecarbonylamino)-N,1,1-trimethyl-N-(1-pyridin-4-yl-piperidin-4-yl)-2,3-dihydro-indene-5-carboxylic acid amide] | 99 | 104 | – | –
CN(C(=O)NC1CC(C)(C)c2ccc(C(=O)N(C)C3CCN(c4ccncc4)CC3)cc21)c1ccccc1Cl (centres unmarked) [CC_H-15, 3-[[(2-Chlorophenyl)-methyl-carbamoyl]amino]-N,1,1-trimethyl-N-(1-pyridin-4-yl-piperidin-4-yl)-2,3-dihydro-indene-5-carboxylic acid amide] | 99 | 101 | – | –
CN(C(=O)c1ccc2c(c1)C(NS(=O)(=O)c1c(Cl)cccc1C(F)(F)F)CCC2)C1CCN(c2ccncc2)CC1 (centres unmarked) [CC_H-16, 8-[[[2-Chloro-6-(trifluoromethyl)-phenyl]sulfonyl]amino]-N-methyl-N-(1-pyridin-4-yl-piperidin-4-yl)-5,6,7,8-tetrahydro-naphthalene-2-carboxylic acid amide] | 99 | 104 | – | –
CN(C(=O)c1ccc2c(c1)C(NC(=O)c1c(Cl)cccc1C(F)(F)F)CC2(C)C)C1CCN(c2ccncc2)CC1 (centres unmarked) [CC_H-17, 3-[[2-Chloro-6-(trifluoromethyl)-benzoyl]amino]-N,1,1-trimethyl-N-(1-pyridin-4-yl-piperidin-4-yl)-2,3-dihydro-indene-5-carboxylic acid amide] | 98 | – | 104 | –
CN(C(=O)c1ccc2c(c1)C(NC(=O)CCC1CCCC1)CC2(C)C)C1CCN(c2ccncc2)CC1 (centres unmarked) [CC_H-18, 3-(3-Cyclopentyl-propanoylamino)-N,1,1-trimethyl-N-(1-pyridin-4-yl-piperidin-4-yl)-2,3-dihydro-indene-5-carboxylic acid amide] | 99 | 102 | – | –
CN(C(=O)c1ccc2c(c1)C(NC(=O)c1cccc(Cl)c1Cl)CC2(C)C)C1CCN(c2ccncc2)CC1 (centres unmarked) [CC_H-19, 3-[(2,3-Dichloro-benzoyl)amino]-N,1,1-trimethyl-N-(1-pyridin-4-yl-piperidin-4-yl)-2,3-dihydro-indene-5-carboxylic acid amide] | 100 | 100 | – | –
CCN(C(=O)C1CCCC1)[C@@H]1CCc2ccc(C(=O)N(C)C3CCN(c4cc(C)nc(C)n4)CC3)cc21 [Example H-229, (3R)-3-(Cyclopentanecarbonyl-ethyl-amino)-N-[1-(2,6-dimethyl-pyrimidin-4-yl)-piperidin-4-yl]-N-methyl-2,3-dihydro-1H-indene-5-carboxylic acid amide] | – | – | – | 98
Cc1cc(N2CCC(N(C)C(=O)c3ccc4c(c3)[C@H](N(C)C(=O)C3CCCC3)CC4)CC2)nc(C)n1 [Example H-230, (3R)-3-(Cyclopentanecarbonyl-methyl-amino)-N-[1-(2,6-dimethyl-pyrimidin-4-yl)-piperidin-4-yl]-N-methyl-2,3-dihydro-1H-indene-5-carboxylic acid amide] | – | – | – | 98
CN(C(=O)c1ccc2c(c1)[C@H](NC(=O)c1ccccc1Cl)CC2)C1CCN(c2ccnc(N)n2)CC1 [Example H-244, (3R)-N-[1-(2-Amino-pyrimidin-4-yl)-piperidin-4-yl]-3-[(2-chloro-benzoyl)amino]-N-methyl-2,3-dihydro-1H-indene-5-carboxylic acid amide] | – | – | – | 100
